A short description of series [1]: Compound stability in rat liver microsomes. The class given is in vitro ADME. How it is done:
(§1) Human or rat liver microsomes incubations were conducted in duplicate in polypropylene tubes. The typical incubation mixtures consisted of human or rat liver microsomes (0.5 mg protein/mL), compounds of interest (5 μM) and NADPH (1.0 mM) in a total volume of 200 μL potassium phosphate buffer (PBS, 100 mM, pH 7.4). Compounds were dissolved in DMSO and diluted with PBS such that the final concentration of DMSO was 0.05%. The enzymatic reactions were commenced with the addition of protein after a 3-min preincubation and incubated in a water bath open to the air at 37° C. Reactions were terminated at various time points (0, 5, 10, 15, 30, 60 min) by adding equal volume of ice-cold acetonitrile. The samples were stored at −80° C. until LC/MS/MS assays.
(§2) The concentrations of compounds in the incubation mixtures of human or rat liver microsomes were determined by a LC/MS/MS method. The ranges of the linearity in the concentration range were determined for each tested compounds.
(§3) A parallel incubation was performed using denatured microsomes as the negative control, and reactions were terminated at various time points (0, 15, 60 min) after incubation at 37° C.
(§4) Verapamil (1 μM) was selected as the positive control, and reactions were terminated at various time points (0, 5, 10, 15, 30, 60 min) after incubation at 37° C. Both positive and negative control samples were included in each assay to ensure the integrity of the microsomal incubation system.
(§5) In addition, the stability date of compound in human and rat liver microsomes was also obtained through the following method. Human or rat liver microsomes incubations were conducted in duplicate in polypropylene tubes. The typical incubation mixtures consisted of human or rat liver microsomes (0.5 mg protein/mL), compounds of interest (1.5 μM) and EDTA (1.0 mM) in a total volume of 30 μL potassium phosphate buffer (PBS, 100 mM, pH 7.4). Compounds were dissolved in DMSO and diluted with PBS such that the final concentration of DMSO was 0.2%. The enzymatic reactions were commenced with the addition of 15 μL NADPH (final concentration: 2 mM) after a 10-min preincubation and incubated in a water bath open to the air at 37° C. Reactions were terminated at various time points (0, 15, 30, 60 min) by adding 135 μL acetonitrile (contain IS). The samples were centrifuged at 4000 rpm for 10 min to remove protein, the supernatant was stored at −80° C. until LC/MS/MS assays. Ketanserin (1 μM) was selected as the positive control, and reactions were terminated at various time points (0, 15, 30, 60 min) after incubation at 37° C. Both positive and negative control samples were included in each assay to ensure the integrity of the microsomal incubation system.
(§6) The concentrations of compounds in human or rat liver microsome incubations were plotted as a percentage of the relevant zero time point control for each reaction. The in vivo CLint were extrapolated (ref.: Naritomi, Y.; Terashita, S.; Kimura, S.; Suzuki, A.; Kagayama, A.; and Sugiyama, Y.; Prediction of human hepatic clearance from in vivo animal experiments and in vitro metabolic studies with liver microsomes from animals and humans. Drug Metab. Dispos., 2001, 29: 1316-1324).
A general note: Microsomes from liver hold many membrane-bound enzymes, among them those of drug oxidation.

Series [2] is described as follows: Compound stability in human liver microsomes. The class given is in vitro ADME. How it is done: as §1, §2, §3, §4, §5, §6
Another series concerns the target T1, JAK1 (h) (Homo sapiens, UniProt P23458).
T1 construct: purchased Millipore UK Ltd (contract assay service)
The series can be described thus: JAK1 (h) kinase assay. The class given is biochemical. The method, then: (§7) The above assay procedure can be used to determine the IC50 for inhibition and/or the inhibition constant, Ki. The IC50 is defined as the concentration of compound required to reduce the enzyme activity by 50% under the condition of the assay. The IC50 value is estimated by preparing a 10 point curve using a ½ log dilution series (for example, a typical curve may be prepared using the following compound concentrations: 3 μM, 1 μM, 0.3 μM, 0.1 μM, 0.03 μM, 0.01 μM, 0.003 μM, 0.001 μM, 0.0003 μM and 0 μM).
JAK1 (h) is incubated with 20 mM Tris/HCl pH 7.5, 0.2 mM EDTA, 500 μM GEEPLYWSFPAKKK, 10 mM MgAcetate and [γ-^33P-ATP] (specific activity approx. 500 cpm/pmol, concentration as required). The reaction is initiated by the addition of the MgATP mix. After incubation for 40 minutes at room temperature, the reaction is stopped by the addition of 3% phosphoric acid solution. 10 μL of the reaction is then spotted onto a P30 filtermat and washed three times for 5 minutes in 75 mM phosphoric acid and once in methanol prior to drying and scintillation counting.
(§8) The kinase assays described herein were performed at Millipore UK Ltd, Dundee Technology Park, Dundee DD2 1SW, UK.

For another series, the target named is T2, JAK2 (h) (Homo sapiens, UniProt O60674).
T2 construct: purchased Millipore UK Ltd (contract assay service)
Briefly: JAK2 (h) kinase assay. The class given is biochemical. The method, then: as §7
JAK2 (h) is incubated with 8 mM MOPS pH 7.0, 0.2 mM EDTA, 100 μM […], 10 mM MgAcetate and [γ-^33P-ATP] (specific activity approx. 500 cpm/pmol, concentration as required). The reaction is initiated by the addition of the MgATP mix. After incubation for 40 minutes at room temperature, the reaction is stopped by the addition of 3% phosphoric acid solution. 10 μL of the reaction is then spotted onto a P30 filtermat and washed three times for 5 minutes in 75 mM phosphoric acid and once in methanol prior to drying and scintillation counting.
as §8

Series [3] can be described thus: Pharmacokinetics after intravenous and oral administration in rats. The class given is in vivo. How it is done: The LC/MS/MS system used in the analysis consists of an Agilent 1200 Series vacuum degasser, binary pump, well-plate autosampler, thermostatted column compartment, the Agilent G6430 Triple Quadrupole Mass Spectrometer with an electrosprayionization (ESI) source. Quantitative analysis was carried out using MRM mode. The parameters for MRM transitions are in the Table A.
An Agilent XDB-C18, 2.1×30 mm, 3.5 μM column was used for the analysis. 5 μL of the samples were injected. Analysis condition: The mobile phase was 0.1% formic acid in water (A) and 0.1% formic acid in methanol (B). The flow rate was 0.4 mL/min. And the gradient of Mobile phase was in the Table B.
Alternatively, an Agilent 6330 series LC/MS/MS spectrometer equipped with G1312A binary pumps, a G1367A autosampler and a G1314C UV detector were used in the analysis. An ESI source was used on the LC/MS/MS spectrometer. The analysis was done in positive ion mode as appropriate and the MRM transition for each analyte was optimized using standard solution. A Capcell MP-C18 100×4.6 mm I.D., […] column (Phenomenex, Torrance, Calif., USA) was used during the analysis. The mobile phase was 5 mM ammonia acetate, 0.1% MeOH in water (A): 5 mM ammonia acetate, 0.1% MeOH in acetonitrile (B) (70:30, v/v). The flow rate was 0.6 mL/min. Column was maintained at ambient temperature. 20 μL of the samples were injected.
The compounds disclosed herein are assessed in pharmacokinetic studies in mice, rats, dogs or monkeys. The compounds are administered as a water solution, 2% HPMC+1% TWEEN®80 in water solution, 5% DMSO+5% solutol in saline, 4% MC suspension or capsule. For the intravenous administration, the animals are generally given at 1 or 2 mg/kg dose. For the oral (p.o.) dosing, mice and rats are generally given 5 or 10 mg/kg dose, and dogs and monkeys are generally given 10 mg/kg dose. The blood samples (0.3 mL) are drawn at 0.25, 0.5, 1.0, 2.0, 3.0, 4.0, 6.0, 8.0, 12 and 24 h time points or 0.083, 0.25, 0.5, 1.0, 2.0, 4.0, 6.0, 8.0 and 24 h time points and centrifuged at 3,000 or 4000 rpm for 2 to 10 min. The plasma solutions are collected, and stored at −20° C. or −70° C. until analyzed by LC/MS/MS as described above.

Setting [4] is: pH 7.4, in vivo CLint extrapolated.
The mark [5] stands for this setting: rat, plasma, iv dosing, 1 mg/kg.

T2 sequence (O60674 whole entry): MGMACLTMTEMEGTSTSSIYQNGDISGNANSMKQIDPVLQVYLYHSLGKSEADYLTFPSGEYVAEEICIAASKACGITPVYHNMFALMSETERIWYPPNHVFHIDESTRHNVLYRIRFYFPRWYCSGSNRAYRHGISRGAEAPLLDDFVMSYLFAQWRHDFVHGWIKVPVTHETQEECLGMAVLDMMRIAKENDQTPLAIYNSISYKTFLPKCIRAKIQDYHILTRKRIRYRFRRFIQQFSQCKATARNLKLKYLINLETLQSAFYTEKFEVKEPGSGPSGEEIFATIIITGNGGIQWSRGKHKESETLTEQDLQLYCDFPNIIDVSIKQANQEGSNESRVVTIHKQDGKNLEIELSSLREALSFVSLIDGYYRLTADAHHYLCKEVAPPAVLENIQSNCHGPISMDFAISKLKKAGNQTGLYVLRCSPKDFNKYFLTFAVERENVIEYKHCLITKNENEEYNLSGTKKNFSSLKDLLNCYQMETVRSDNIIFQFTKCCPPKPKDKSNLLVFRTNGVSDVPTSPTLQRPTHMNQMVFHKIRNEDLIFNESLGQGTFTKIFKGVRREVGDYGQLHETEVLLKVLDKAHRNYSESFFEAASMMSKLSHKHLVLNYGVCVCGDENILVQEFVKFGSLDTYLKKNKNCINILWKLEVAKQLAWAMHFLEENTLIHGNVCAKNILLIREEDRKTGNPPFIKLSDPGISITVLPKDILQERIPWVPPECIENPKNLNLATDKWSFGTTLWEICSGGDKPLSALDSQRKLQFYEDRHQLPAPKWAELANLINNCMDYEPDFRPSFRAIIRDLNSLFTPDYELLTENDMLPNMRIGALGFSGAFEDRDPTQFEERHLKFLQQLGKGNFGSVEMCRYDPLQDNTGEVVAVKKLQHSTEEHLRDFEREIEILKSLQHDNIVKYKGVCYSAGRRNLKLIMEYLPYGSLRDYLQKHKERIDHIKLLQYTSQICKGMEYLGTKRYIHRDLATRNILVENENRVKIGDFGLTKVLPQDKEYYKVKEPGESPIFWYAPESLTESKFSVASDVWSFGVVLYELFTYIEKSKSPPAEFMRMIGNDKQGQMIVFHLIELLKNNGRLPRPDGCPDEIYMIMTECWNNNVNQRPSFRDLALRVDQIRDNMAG
T1 sequence (P23458 whole entry): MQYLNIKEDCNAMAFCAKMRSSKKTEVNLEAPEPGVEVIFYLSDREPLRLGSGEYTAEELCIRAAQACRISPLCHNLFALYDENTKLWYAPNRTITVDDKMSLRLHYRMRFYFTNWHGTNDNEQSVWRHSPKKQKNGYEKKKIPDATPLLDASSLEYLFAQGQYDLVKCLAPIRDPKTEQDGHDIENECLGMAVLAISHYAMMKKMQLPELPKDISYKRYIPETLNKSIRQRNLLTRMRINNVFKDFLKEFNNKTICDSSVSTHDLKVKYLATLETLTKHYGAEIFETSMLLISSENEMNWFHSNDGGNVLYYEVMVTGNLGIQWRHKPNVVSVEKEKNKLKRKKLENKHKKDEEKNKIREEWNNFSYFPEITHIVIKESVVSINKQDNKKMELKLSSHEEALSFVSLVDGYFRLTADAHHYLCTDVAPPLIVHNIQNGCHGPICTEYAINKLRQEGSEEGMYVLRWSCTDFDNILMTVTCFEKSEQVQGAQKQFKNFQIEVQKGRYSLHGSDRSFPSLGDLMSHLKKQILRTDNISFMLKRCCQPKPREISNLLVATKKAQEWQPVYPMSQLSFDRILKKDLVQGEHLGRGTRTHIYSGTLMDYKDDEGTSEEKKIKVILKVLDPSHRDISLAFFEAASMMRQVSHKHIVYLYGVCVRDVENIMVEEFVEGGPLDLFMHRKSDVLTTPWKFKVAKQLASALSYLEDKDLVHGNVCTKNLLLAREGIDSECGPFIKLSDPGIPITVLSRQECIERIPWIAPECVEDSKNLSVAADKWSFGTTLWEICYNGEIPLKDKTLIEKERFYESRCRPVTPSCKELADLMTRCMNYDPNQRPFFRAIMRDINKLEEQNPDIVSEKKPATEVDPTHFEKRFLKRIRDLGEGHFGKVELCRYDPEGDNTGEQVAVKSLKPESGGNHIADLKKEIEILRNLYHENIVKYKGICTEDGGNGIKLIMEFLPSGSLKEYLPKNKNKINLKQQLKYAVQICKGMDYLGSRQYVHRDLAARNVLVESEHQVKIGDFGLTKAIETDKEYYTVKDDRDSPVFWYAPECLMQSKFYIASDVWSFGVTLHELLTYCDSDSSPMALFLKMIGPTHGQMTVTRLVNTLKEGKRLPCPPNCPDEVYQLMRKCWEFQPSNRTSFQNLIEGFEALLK

As usually defined, the CLint scaled is the rate of metabolic loss divided by the concentration. One may read the IC50 as the concentration that gives 50% inhibition. A low value points to greater potency in that assay. Broadly, the AUC(0-t) is the area under the concentration-time curve up to a stated or last time point. A lower AUC(0-t) goes with low exposure. Consider `Cc1nn(C)cc1Nc1ncc(Cl)c(N(C)C2CCN(c3ccc(C#N)cn3)CC2)n1` [Ex. 14, 6-(4-((5-chloro-2-((1,3-dimethyl-1H-pyrazol-4-yl)amino)pyrimidin-4-yl) (methyl)amino)piperidin-1-yl)nicotinonitrile], for which the half-life in series [1] (pH 7.4, 37° C., NADPH, read-out: Rat T1/2) was 1.71 min; in series [2] (pH 7.4, 37° C., NADPH, read-out: Human T1/2) it was 7.99 min; in series [3] (setting [5]) it was 29.4 min. Also, the intrinsic clearance (CLint scaled) in series [1] (setting [4]) is 1450 mL/min/kg; in series [2] (setting [4]), 217 mL/min/kg. Also, the figures for the IC50 against JAK1 (h) and against JAK2 (h) were 1 nM and 175 nM, respectively. In series [3] (iv dosing, 1 mg/kg), the “clearance (CL)” value stood at 61.2 mL/min/kg. Moreover, the F in series [3] (oral bioavailability) is 107.1%. Further, the area under the curve AUC(0-t) in series [3] (setting [5]) was 273 ng·h/mL. In series [3] (rat, plasma, iv dosing, 1 mg/kg, read-out: Vss), the Vd came out at 1.19 L/kg.
